Experimental data published in patent US20260258420A1, “COMPOSITIONS AND METHODS FOR THE TREATMENT OF HUMAN PAPILLOMAVIRUS-DRIVEN CANCERS” (priority 2023, published 2026).

Tests used:
Format in all cases: cell-based
[1] = tested on: 3 HPV-positive and 3 HPV-negative cell lines; assay: Immunoblot of cleaved PARP and cleaved caspase-3; conditions: 72 hours or 2 doubling times
Procedure: BrdU positive apoptotic cells were detected and quantified. The bar graph indicates the percentage of apoptotic cells with fragmented DNA in HPV-positive and HPV-negative cell lines. Values are the means±the standard deviations for 3 independent experiments. FIG. 2B and FIG. 2C show immunoblots of cleaved PARP (Cl. PARP) and cleaved caspase-3 (Cl. […] UM47, UMSCC47; GAPDH, glyceraldehyde 3-phosphate dehydrogenase. Western blot analysis was performed as described previously (Ferrarotto, et al., Clin Cancer Res 2016; 22(7):1674-86). In brief, cells were lysed with ice-cold lysis buffer, and the lysates were centrifuged at 20,000×g for 10 minutes at 4° C. Cell lysates containing equal amounts of protein were resolved using sodium dodecyl sulfate-polyacrylamide gel electrophoresis, transferred to nitrocellulose membranes, and incubated with different primary antibodies. Protein expression was detected using a horseradish peroxidase-conjugated secondary antibody (Bio-Rad, Hercules, CA) and electrochemiluminescence reagent (Amersham Biosciences, Pittsburgh, PA).

[2] = tested on: HPV-negative cancer cell lines (UMSCC19, FaDu, and HN31); assay: BrdU-TUNEL apoptosis assay, HPV-negative cell lines; conditions: 50 nmol/L barasertib or 200 nmol/L alisertib, 72 hours or 2 doubling times
Procedure: BrdU positive apoptotic cells were detected and quantified. The bar graph indicates the percentage of apoptotic cells with fragmented DNA in HPV-positive and HPV-negative cell lines. Values are the means±the standard deviations for 3 independent experiments. FIG. 2B and FIG. 2C show immunoblots of cleaved PARP (Cl. PARP) and cleaved caspase-3 (Cl. Caspase-3) levels in 3-HPV positive and 3 HPV-negative cell lines after barasertib or alisertib treatment for 2 doubling times (FIG. 2B) or 72 hours (FIG. 2C). […] UM47, UMSCC47; GAPDH, glyceraldehyde 3-phosphate dehydrogenase.
To measure apoptosis, TUNEL staining was performed with an APO-BRDU Kit (BD Biosciences, San Jose, CA) and annexin V/propidium iodide staining with an FITC Annexin V Apoptosis Detection Kit PE (eBioscience, San Diego, CA) as described previously (Kalu, et al., Cancer Lett 2018; 431:64-72). […] Data were acquired with a 3-laser, 10-color Gallios flow cytometer (Beckman Coulter, Brea, CA) and analyzed using Kaluza software, RRID:SCR_016182 (Beckman Coulter, Brea, CA). […] Briefly, after drug treatment, cells were incubated with Senescence Green Probe, a fluorescence-based reagent that contains 2 galactoside moieties that make it specific to […]. The enzyme-cleaved product is retained within the cell, and it emits a fluorogenic signal that was measured at 490/514 nm using a flow cytometer. […]

[3] = tested on: 16 HPV-positive HNSCC and cervical squamous cancer cell lines; assay: High-throughput drug screen (HTDS), cell death by AOC_LD, HPV-positive cell lines
Procedure: The concordance correlation coefficient was computed to assess the reproducibility of the normalized growth rates of the 2 replicates. […] A chi-square test was applied to compare drug classification and the cluster membership. The Fisher exact test was applied to compare mutations status (wild-type and mutant) and drugs' response data (sensitive and resistant).
The effects of 864 unique drugs from 51 classes was tested in 16 HPV-positive and 17 HPV-negative HNSCC and cervical squamous cancer cell lines (Table 2) that were characterized previously (Kaiu, et al., Oncotarget 2017; 8(49):86369-83).

## COc1cc(Nc2ncc3c(n2)-c2ccc(Cl)cc2C(c2c(F)cccc2OC)=NC3)ccc1C(=O)O [ALISERTIB, alisertib]
[1]
  caspase-3 activation and PARP cleavage: selective caspase-3 activation and PARP cleavage in HPV-positive cancer cell lines
[2]
  apoptosis (TUNEL): no appreciable levels of apoptosis
[3]; resistant = AOC_LD 0
  HPV positive Resistant (number of cell lines): 6
[3]; sensitive = AOC_LD greater than 0
  HPV positive Sensitive (number of cell lines): 10
